# Laboratory results from PubChem BioAssay AID1259407 (Chemical Carcinogenesis Research Information System (CCRIS), 2018).
# The source made the active and inactive calls. No rule for the calls is given here.
# Test system: CCRIS mutagenicity, Ames/micronucleus/aberration tests
# Test: CCRIS mutagenicity studies
# [1] = Test System: AMES SALMONELLA TYPHIMURIUM, Strain/Indicator: TA97, Metabolic Activation: NONE, Method: PREINCUBATION
# [2] = Test System: AMES SALMONELLA TYPHIMURIUM, Strain/Indicator: TA98, Metabolic Activation: NONE, Method: PREINCUBATION
# [3] = Test System: AMES SALMONELLA TYPHIMURIUM, Strain/Indicator: TA100, Metabolic Activation: NONE, Method: PREINCUBATION
# [4] = Test System: AMES SALMONELLA TYPHIMURIUM, Strain/Indicator: TA1535, Metabolic Activation: NONE, Method: PREINCUBATION
# [5] = Test System: AMES SALMONELLA TYPHIMURIUM, Strain/Indicator: TA1537, Metabolic Activation: NONE, Method: PREINCUBATION
structure (smiles),measurement,setting,value
COC(=O)[C@H]1[C@H]2C[C@@H]3c4[nH]c5cc(OC)ccc5c4CCN3C[C@H]2C[C@@H](OC(=O)/C=C/c2cc(OC)c(OC)c(OC)c2)[C@@H]1OC,mutagenic call,"Test System: AMES SALMONELLA TYPHIMURIUM, Strain/Indicator: TA97, Metabolic Activation: HAMSTER, LIVER, S-9, AROCLOR 1254 (10 OR 30%), Method: PREINCUBATION",inactive; negative
same,mutagenic call,[1],inactive; negative
same,mutagenic call,"Test System: AMES SALMONELLA TYPHIMURIUM, Strain/Indicator: TA97, Metabolic Activation: RAT, LIVER, S-9, AROCLOR 1254 (10 OR 30%), Method: PREINCUBATION",inactive; negative
same,mutagenic call,"Test System: AMES SALMONELLA TYPHIMURIUM, Strain/Indicator: TA98, Metabolic Activation: HAMSTER, LIVER, S-9, AROCLOR 1254 (10 OR 30%), Method: PREINCUBATION",inactive; negative
same,mutagenic call,[2],inactive; negative
same,mutagenic call,"Test System: AMES SALMONELLA TYPHIMURIUM, Strain/Indicator: TA98, Metabolic Activation: RAT, LIVER, S-9, AROCLOR 1254 (10 OR 30%), Method: PREINCUBATION",inactive; negative
same,mutagenic call,"Test System: AMES SALMONELLA TYPHIMURIUM, Strain/Indicator: TA100, Metabolic Activation: HAMSTER, LIVER, S-9, AROCLOR 1254 (10 OR 30%), Method: PREINCUBATION",inactive; negative
same,mutagenic call,[3],inactive; negative
same,mutagenic call,"Test System: AMES SALMONELLA TYPHIMURIUM, Strain/Indicator: TA100, Metabolic Activation: RAT, LIVER, S-9, AROCLOR 1254 (10 OR 30%), Method: PREINCUBATION",inactive; negative
same,mutagenic call,"Test System: AMES SALMONELLA TYPHIMURIUM, Strain/Indicator: TA1535, Metabolic Activation: HAMSTER, LIVER, S-9, AROCLOR 1254 (10 OR 30%), Method: PREINCUBATION",inactive; negative
same,mutagenic call,[4],inactive; negative
same,mutagenic call,"Test System: AMES SALMONELLA TYPHIMURIUM, Strain/Indicator: TA1535, Metabolic Activation: RAT, LIVER, S-9, AROCLOR 1254 (10 OR 30%), Method: PREINCUBATION",inactive; negative
same,mutagenic call,"Test System: AMES SALMONELLA TYPHIMURIUM, Strain/Indicator: TA1537, Metabolic Activation: HAMSTER, LIVER, S-9, AROCLOR 1254 (30%), Method: PREINCUBATION",inactive; negative
same,mutagenic call,[5],inactive; negative
same,mutagenic call,"Test System: AMES SALMONELLA TYPHIMURIUM, Strain/Indicator: TA1537, Metabolic Activation: RAT, LIVER, S-9, AROCLOR 1254 (30%), Method: PREINCUBATION",inactive; negative
COc1cccc2c1C1(C)OOC1(C)O2 (configuration not stated),mutagenic call,[3],active; positive
NCC(=O)O,mutagenic call,[1],inactive; negative
same,mutagenic call,"Test System: AMES SALMONELLA TYPHIMURIUM, Strain/Indicator: TA97, Metabolic Activation: RAT, LIVER, S-9, AROCLOR 1254, Method: PREINCUBATION",inactive; negative
same,mutagenic call,"Test System: AMES SALMONELLA TYPHIMURIUM, Strain/Indicator: TA98, Metabolic Activation: HAMSTER, LIVER, S-9, AROCLOR 1254, Method: PREINCUBATION",inactive; negative
same,mutagenic call,[2],inactive; negative
same,mutagenic call,"Test System: AMES SALMONELLA TYPHIMURIUM, Strain/Indicator: TA98, Metabolic Activation: NONE, Method: STANDARD PLATE",inactive; negative
same,mutagenic call,"Test System: AMES SALMONELLA TYPHIMURIUM, Strain/Indicator: TA98, Metabolic Activation: RAT, LIVER, S-9, AROCLOR 1254, Method: PREINCUBATION",inactive; negative
same,mutagenic call,"Test System: AMES SALMONELLA TYPHIMURIUM, Strain/Indicator: TA98, Metabolic Activation: RAT, LIVER, S-9, AROCLOR 1254, Method: STANDARD PLATE",inactive; negative
same,mutagenic call,"Test System: AMES SALMONELLA TYPHIMURIUM, Strain/Indicator: TA100, Metabolic Activation: HAMSTER, LIVER, S-9, AROCLOR 1254, Method: PREINCUBATION",inactive; negative
same,mutagenic call,[3],inactive; negative
same,mutagenic call,"Test System: AMES SALMONELLA TYPHIMURIUM, Strain/Indicator: TA100, Metabolic Activation: NONE, Method: STANDARD PLATE",inactive; negative
same,mutagenic call,"Test System: AMES SALMONELLA TYPHIMURIUM, Strain/Indicator: TA100, Metabolic Activation: RAT, LIVER, S-9, AROCLOR 1254, Method: PREINCUBATION",inactive; negative
same,mutagenic call,"Test System: AMES SALMONELLA TYPHIMURIUM, Strain/Indicator: TA100, Metabolic Activation: RAT, LIVER, S-9, AROCLOR 1254, Method: STANDARD PLATE",inactive; negative
same,mutagenic call,"Test System: AMES SALMONELLA TYPHIMURIUM, Strain/Indicator: TA102, Metabolic Activation: NONE, Method: PREINCUBATION",inactive; negative
same,mutagenic call,"Test System: AMES SALMONELLA TYPHIMURIUM, Strain/Indicator: TA102, Metabolic Activation: RAT, LIVER, S-9, AROCLOR 1254, Method: PREINCUBATION",inactive; negative
same,mutagenic call,"Test System: AMES SALMONELLA TYPHIMURIUM, Strain/Indicator: TA1535, Metabolic Activation: HAMSTER, LIVER, S-9, AROCLOR 1254, Method: PREINCUBATION",inactive; negative
same,mutagenic call,[4],inactive; negative
same,mutagenic call,"Test System: AMES SALMONELLA TYPHIMURIUM, Strain/Indicator: TA1535, Metabolic Activation: NONE, Method: STANDARD PLATE",inactive; negative
same,mutagenic call,"Test System: AMES SALMONELLA TYPHIMURIUM, Strain/Indicator: TA1535, Metabolic Activation: RAT, LIVER, S-9, AROCLOR 1254, Method: PREINCUBATION",inactive; negative
same,mutagenic call,"Test System: AMES SALMONELLA TYPHIMURIUM, Strain/Indicator: TA1535, Metabolic Activation: RAT, LIVER, S-9, AROCLOR 1254, Method: STANDARD PLATE",inactive; negative
same,mutagenic call,"Test System: AMES SALMONELLA TYPHIMURIUM, Strain/Indicator: TA1537, Metabolic Activation: HAMSTER, LIVER, S-9, AROCLOR 1254, Method: PREINCUBATION",inactive; negative
same,mutagenic call,[5],inactive; negative
same,mutagenic call,"Test System: AMES SALMONELLA TYPHIMURIUM, Strain/Indicator: TA1537, Metabolic Activation: NONE, Method: STANDARD PLATE",inactive; negative
same,mutagenic call,"Test System: AMES SALMONELLA TYPHIMURIUM, Strain/Indicator: TA1537, Metabolic Activation: RAT, LIVER, S-9, AROCLOR 1254, Method: PREINCUBATION",inactive; negative
same,mutagenic call,"Test System: AMES SALMONELLA TYPHIMURIUM, Strain/Indicator: TA1537, Metabolic Activation: RAT, LIVER, S-9, AROCLOR 1254, Method: STANDARD PLATE",inactive; negative
same,mutagenic call,"Test System: AMES SALMONELLA TYPHIMURIUM, Strain/Indicator: TA1538, Metabolic Activation: NONE, Method: STANDARD PLATE",inactive; negative
same,mutagenic call,"Test System: AMES SALMONELLA TYPHIMURIUM, Strain/Indicator: TA1538, Metabolic Activation: RAT, LIVER, S-9, AROCLOR 1254, Method: STANDARD PLATE",inactive; negative
same,mutagenic call,"Test System: MOUSE LYMPHOMA, Strain/Indicator: L5178Y (TK+/TK-), Metabolic Activation: NONE",inactive; negative
same,mutagenic call,"Test System: MOUSE LYMPHOMA, Strain/Indicator: L5178Y (TK+/TK-), Metabolic Activation: RAT, LIVER, S-9, AROCLOR 1254",inactive; negative
same,mutagenic call,"Test System: MOUSE LYMPHOMA, Strain/Indicator: L5178Y (TK+/TK-), Metabolic Activation: RAT, LIVER, S-9, AROCLOR 1254, Method: SUSPENSION/PLATE",inactive; negative. reevaluation of results: inconclusive
same,mutagenic call,"Test System: Mouse lymphoma, Strain/Indicator: L5178Y (tk+/tk-), Metabolic Activation: None, Method: Suspension/plate",active; inconclusive (previous evaluation positive)
same,mutagenic call,"Test System: UDS RAT PRIMARY HEPATOCYTES, Metabolic Activation: NONE",inactive; negative
